Results reported in patent publication US7960376B2, “Benzo-fused heterocycles” (priority 2007, dated 2011).

How the values were obtained:
Assay type in all cases: cell-based
[1] = molecular target: T1, rat CB2 receptor (rCB2) (Rattus norvegicus, UniProt Q9QZN9); assay: cell-based; conditions: intracellular cAMP, CHO-K1 cells, NKH-477 prestimulated; + agonist, − inverse agonist
T1 sequence (Q9QZN9 1-360): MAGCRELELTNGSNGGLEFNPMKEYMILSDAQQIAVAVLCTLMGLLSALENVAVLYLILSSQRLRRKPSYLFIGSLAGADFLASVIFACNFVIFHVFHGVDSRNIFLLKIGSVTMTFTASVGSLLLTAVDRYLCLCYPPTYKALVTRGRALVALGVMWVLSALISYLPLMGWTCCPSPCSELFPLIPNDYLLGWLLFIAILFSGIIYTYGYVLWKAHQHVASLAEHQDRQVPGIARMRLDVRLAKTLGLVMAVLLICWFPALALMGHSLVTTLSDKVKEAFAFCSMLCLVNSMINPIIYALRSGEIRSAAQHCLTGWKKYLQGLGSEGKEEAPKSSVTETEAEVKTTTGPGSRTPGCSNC

[2] = molecular target: human CB1 receptor (hCB1) (Homo sapiens, UniProt P21554); assay: cAMP assay (LANCE TR-FRET) in CHO-K1 cells expressing hCB1; conditions: intracellular cAMP, NKH-477 prestimulated, + agonist, − inverse agonist
Sequence of human CB1 receptor (hCB1) (P21554 whole entry): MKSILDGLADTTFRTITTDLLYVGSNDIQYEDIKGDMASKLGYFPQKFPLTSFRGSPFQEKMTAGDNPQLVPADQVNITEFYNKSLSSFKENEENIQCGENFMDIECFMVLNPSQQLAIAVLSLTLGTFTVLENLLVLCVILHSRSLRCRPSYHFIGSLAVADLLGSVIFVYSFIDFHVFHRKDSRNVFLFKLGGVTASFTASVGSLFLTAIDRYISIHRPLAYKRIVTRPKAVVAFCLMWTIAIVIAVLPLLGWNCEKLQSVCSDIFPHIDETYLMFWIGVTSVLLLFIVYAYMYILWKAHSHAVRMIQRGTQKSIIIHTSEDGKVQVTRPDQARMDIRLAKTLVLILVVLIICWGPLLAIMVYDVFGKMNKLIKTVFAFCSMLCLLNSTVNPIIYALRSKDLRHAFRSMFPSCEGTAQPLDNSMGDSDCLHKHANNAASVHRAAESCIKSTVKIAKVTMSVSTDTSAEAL

[3] = molecular target: human CB2 receptor (hCB2) (Homo sapiens, UniProt P34972); assay: cell-based; conditions: intracellular cAMP, CHO-K1 cells, NKH-477 prestimulated; + agonist, − inverse agonist
Sequence of human CB2 receptor (hCB2) (P34972 whole entry): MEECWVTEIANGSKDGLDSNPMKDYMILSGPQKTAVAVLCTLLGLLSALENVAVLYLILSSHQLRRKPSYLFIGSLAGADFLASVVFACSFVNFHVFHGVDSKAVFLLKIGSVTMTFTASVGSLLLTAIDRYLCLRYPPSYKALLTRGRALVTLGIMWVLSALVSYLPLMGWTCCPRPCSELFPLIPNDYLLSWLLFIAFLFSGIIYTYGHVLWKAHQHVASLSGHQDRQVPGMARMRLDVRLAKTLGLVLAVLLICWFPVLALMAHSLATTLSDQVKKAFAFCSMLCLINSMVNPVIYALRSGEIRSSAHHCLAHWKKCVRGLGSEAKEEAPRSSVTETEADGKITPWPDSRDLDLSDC

Compound | rCB2 EC50 range [1] | hCB1 EC50 range [2] | hCB2 EC50 range [3]
COc1ccc(C(=O)N2CCSc3ccc(C(=O)NCC(C)C)cc32)cc1 [Example 5, N-isobutyl-4-(4-meth-oxybenzoyl)-3,4-di-hydro-2H-benzo[b] [1,4]thiazine-6-carboxamide] | −E | −E | −E
O=C(NC1CCCC1)c1ccc2c(c1)N(S(=O)(=O)c1ccc(F)cc1)CCO2 [Example 62, N-cyclopentyl-4-(4-fluorophenylsulfonyl)-3,4-dihydro-2H-benzo[b][1,4]oxazine-6-carboxamide] | +A | +D | +B
O=C(NC1CCCC1)c1ccc2c(c1)N(C(=O)c1ccccc1)CCS2 [Example 14, 4-benzoyl-N-cyclopentyl-3,4-dihydro-2H-benzo[b][1,4]thiazine-6-carboxamide] | −D | −E | −E
O=C(NC1CCCC1)c1ccc2c(c1)N(S(=O)(=O)c1ccccc1)CCO2 [Example 61, N-cyclopentyl-4-(phenylsulfonyl)-3,4-dihydro-2H-benzo[b][1,4]oxazine-6-carboxamide] | +C | +E | +C
O=C(c1ccc2c(c1)N(S(=O)(=O)c1ccc(F)cc1)CCS2)N1CCOCC1 [Example 42, (4-(4-fluorophenylsulfonyl)-3,4-dihydro-2H-benzo[b][1,4]thiazin-6-yl)(morpholino)methanone] | +C | +E | +D
O=S(=O)(c1ccc(F)cc1)N1CCSc2ccc(-c3nnc(-c4ccccc4)o3)cc21 [Example 104, 2-(4-(4-fluorophenylsulfonyl)-3,4-dihydro-2H-benzo[b][1,4]thiazin-6-yl)-5-phenyl-1,3,4-oxadiazole] | +B | +D | +C
CNC(=O)[C@@H](NC(=O)c1ccc2c(c1)N(S(=O)(=O)c1ccc(F)cc1)CCC(C)(C)S2)C(C)(C)C [Example 103, (S)-N-(3,3-dimethyl-1-(methylamino)-1-oxobutan-2-yl)-5-(4-fluorophenyl-sulfonyl)-2,2-dimethyl-2,3,4,5-tetrahydrobenz0-[b][1,4]thiazepine-7-carboxamide] | +C | −E | +D
O=S(=O)(c1ccc(C(F)(F)F)cc1)N1CCSc2ccc(-c3nnc(-c4ccccc4)o3)cc21 [Example 105, 2-phenyl-5-(4-(4-(trifluoromethyl)phenylsulfonyl)-3,4-dihydro-2H-benzo[b][1,4]thiazin-6-yl)-1,3,4-oxadiazole] | +A | +D | +C
CC(C)CNC(=O)c1ccc2c(c1)N(S(=O)(=O)c1ccc(F)cc1)CCS2 [Example 43, 4-(4-fluorophenylsulfonyl)-N-isobutyl-3,4-dihydro-2H-benzo[b][1,4]thiazine-6-carboxamide] | +A | +D | +B
CCc1noc(-c2ccc3c(c2)N(S(=O)(=O)c2ccc(C(F)(F)F)cc2)CCS3)n1 [Example 89, 3-ethyl-5-(4-(4-(trifluoromethyl)phenylsulfonyl)-3,4-dihydro-2H-benzo[b][1,4]thiazin-6-yl)-1,2,4-oxadiazole] | +A | +D | +B
CC(C)(C)NC(=O)c1ccc2c(c1)N(S(=O)(=O)c1ccc(F)cc1)CCS2 [Example 47, N-tert-butyl-4-(4-fluorophenylsulfonyl)-3,4-dihydro-2H-benzo[b][1,4]thiazine-6-carboxamide] | +A | +E | +B
O=C(NC12CC3CC(CC(C3)C1)C2)c1ccc2c(c1)N(C(=O)c1ccc(F)cc1)CCS2 [Example 22] | −D | −E | −E
CC(C)CNC(=O)c1ccc2c(c1)N(C(=O)c1ccccc1)CCS2 [Example 2, 4-benzoyl-N-isobutyl-3,4-dihydro-2H-benzo[b][1,4]thiazine-6-carboxamide] | −C | −E | −E
O=C(NC12CC3CC(CC(C3)C1)C2)c1ccc2c(c1)N(C(=O)c1ccc(Cl)cc1)CCS2 [Example 24, N-(1-adamantyl)-4-(4-chlorobenzoyl)-3,4-dihydro-2H-benzo[b][1,4]thiazine-6-carboxamide] | −D | −E | −E
CCc1noc(-c2ccc3c(c2)N(S(=O)(=O)c2ccc(F)cc2)CCS3)n1 [Example 90, 3-ethyl-5-(4-(4-fluorophenylsulfonyl)-3,4-dihydro-2H-benzo[b][1,4]thiazin-6-yl)-1,2,4-oxadiazole] | +A | +D | +B
COCCCNC(=O)c1ccc2c(c1)N(S(=O)(=O)c1ccc(F)cc1)CCS2 [Example 49, 4-(4-fluorophenylsulfonyl)-N-(3-methoxypropyl)-3,4-dihydro-2H-benzo[b][1,4]thiazine-6-carboxamide] | +A | +E | +C
Cc1ccc(C(=O)N2CCSc3ccc(C(=O)NC45CC6CC(CC(C6)C4)C5)cc32)cc1 [Example 23, N-(1-adamantyl)-4-(4-methylbenzoyl)-3,4-dihydro-2H-benzo[b][1,4]thiazine-6-carboxamide] | −D | −E | −E
CC(C)(C)c1noc(-c2ccc3c(c2)N(S(=O)(=O)c2ccccc2)CCS3)n1 [Example 84] | +A | +E | +C
O=C(NC12CC3CC(CC(C3)C1)C2)c1ccc2c(c1)N(C(=O)c1ccccc1)CCS2 [Example 21, 4-benzoyl-N-(1-adamantyl)-3,4-dihydro-2H-benzo[b][1,4]thiazine-6-carboxamide] | −D | −E | −E
O=S(=O)(c1ccc(C(F)(F)F)cc1)N1CCSc2ccc(-c3nc4ccccc4o3)cc21 [Example 109, 2-(4-(4-(trifluoromethyl)phenylsulfonyl)-3,4-dihydro-2H-benzo[b][1,4]thiazin-6-yl)benzo[d]oxazole] | +B | +D | +C
CC(C)CNC(=O)c1ccc2c(c1)N(C(=O)c1ccc(Cl)cc1)CCS2 [Example 1, 4-(4-chlorobenzoyl)-N-isobutyl-3,4-dihydro-2H-benzo[b][1,4]thiazine-6-carboxamide] |  | −E | −E
Cc1ccc(C(=O)N2CCSc3ccc(C(=O)NCC(C)C)cc32)cc1 [Example 4, N-isobutyl-4-(4-methylbenzoyl)-3,4-dihydro-2H-benzo[b][1,4] thiazine-6-carboxamide] |  | −E | −E
C[C@@H](NC(=O)c1ccc2c(c1)N(S(=O)(=O)c1ccccc1)CCC(C)(C)S2)C(C)(C)C [Example 97, (R)-N-(3,3-dimethyl-butan-2-yl)-2,2-dimethyl-5-(phenyl-sulfonyl)-2,3,4,5-tetrahydrobenzo[b][1,4] thiazepine-7-carboxamide] |  | −D | +D
